Experiments:
Format in all cases: in vivo
[1] = system: Kochia scoparia (kochia, KCHSC); test: Field trial, percent visual weed control of kochia
Description: (§1) These trials were conducted under field conditions in western Canada. The trials were designed as split-block, factorial designs with timing (spring vs. fall), Authority 480 (sulfentrazone) rate (0, 52 or 105 g ai/ha), Kerb™ SC (propyzamide) rate (0, 450 or 900 g ai/ha) as the main factors and Edge™ Granular (ethalfluralin) application (0 or 1100 g ai/ha) as the split-block factor. Edge™ was applied to test plots at a rate of 1100 g ai/ha using a granular applicator in the fall of 2011 (17 October to 9 November). Authority 480 and Kerb™ SC treatments were applied to test plots either in the fall prior to or after Edge™ application (17 October to 3 November), or in the spring of 2012 (24 April to 5 May). An untreated control was also included in each trial. Following herbicide treatment application in the spring of 2012, lentils were seeded or field peas were seeded into plots. Weed efficacy assessments were taken at 9-15 days after the spring application (DAA2) for an initial evaluation, 33 DAA2 for an early evaluation, 48-52 DAA2 for a mid evaluation, and 77-85 DAA2 for a late evaluation. The trial sites had naturally occurring populations of weeds. The weed spectrum included, but was not limited to, Avena fatua (wild oats, AVEFA), Hordeum jubatum (foxtail barley, HORJU), Kochia scoparia (kochia, KCHSC) and Sinapis arvensis L. (wild mustard, SINAR).
(§2) The treated plots and control plots were rated blind at various intervals after application. Ratings were based of Percent (%) Visual weed control, where 0 corresponds to no injury and 100 corresponds to complete kill.
(§3) Colby's equation was used to determine the herbicidal effects expected from the mixtures (Colby, S. R. Calculation of the synergistic and antagonistic response of herbicide combinations. Weeds 1967, 15, 20-22).
(§4) The following equation was used to calculate the expected activity of mixtures containing two active ingredients, A and B:
(§5) Expected=A+B−(A×B/100) • A=observed efficacy of active ingredient A at the same concentration as used in the mixture; • B=observed efficacy of active ingredient B at the same concentration as used in the mixture.
(§6) For mixtures containing three herbicidal active ingredients, the following equation can be used to calculate the expected activity:
(§7) [formula] • A=observed efficacy of a first active ingredient at the same concentration as used in the mixture; • B=observed efficacy of a second active ingredient B at the same concentration as used in the mixture; • C=observed efficacy of a third active ingredient C at the same concentration as used in the mixture.

[2] = system: Sinapis arvensis L. (wild mustard, SINAR); test: Field trial, percent visual weed control of wild mustard
Description: as §1, §2, §3, §4, §5, §6, §7

[3] = system: Avena fatua (wild oats, AVEFA); test: Field trial, percent visual weed control of wild oats
Description: as §1, §2, §3, §4, §5, §6, §7

[4] = system: Hordeum jubatum (foxtail barley, HORJU); test: Field trial, percent visual weed control of foxtail barley
Description: as §1, §2, §3, §4, §5, §6, §7

[5] = Table 3 (Spring applications), ethalfluralin 1100 g ai/ha (Edge Granular applied in the fall)
[6] = Table 4, Fall application, ethalfluralin 1100 g ai/ha
[7] = Table 1, Fall application, propyzamide 450 g ai/ha
[8] = Table 1, Fall application, propyzamide 900 g ai/ha
[9] = Table 2, Spring application, propyzamide 450 g ai/ha
[10] = Table 2, Spring application, propyzamide 900 g ai/ha
[11] = Table 3, Spring application, propyzamide 450 g ai/ha
[12] = Table 1, Fall application, sulfentrazone 52 g ai/ha
[13] = Table 1, Fall application, sulfentrazone 105 g ai/ha
[14] = Table 2, Spring application, sulfentrazone 52 g ai/ha
[15] = Table 3, Spring application, sulfentrazone 52 g ai/ha
[16] = Table 4, Fall application, sulfentrazone 52 g ai/ha

C=C(C)CN(CC)c1c([N+](=O)[O-])cc(C(F)(F)F)cc1[N+](=O)[O-] [Ethalfluralin, N-ethyl-N-(2-methyl-2-propen-1-yl)-2,6-dinitro-4-(trifluoromethyl)benzenamine]
KCHSC Obs (Observed percent weed control) [1, 5]: 55%
KCHSC Obs (Observed percent weed control) [1, 6]: 55%
SINAR Obs (Observed percent weed control) [2, 5]: 0%
SINAR Obs (Observed percent weed control) [2, 6]: 0%
AVEFA Obs (Observed percent weed control) [3, 5]: 49%

C#CC(C)(C)NC(=O)c1cc(Cl)cc(Cl)c1 [Propyzamide, 3,5-dichloro-N-(1,1-dimethyl-2-propyn-1-yl)benzamide]
HORJU Obs (Observed percent weed control) [4, 7]: 18%
HORJU Obs (Observed percent weed control) [4, 8]: 59%
HORJU Obs (Observed percent weed control) [4, 9]: 30%
HORJU Obs (Observed percent weed control) [4, 10]: 68%
KCHSC Obs (Observed percent weed control) [1, 7]: 0%
KCHSC Obs (Observed percent weed control) [1, 8]: 65%
KCHSC Obs (Observed percent weed control) [1, 10]: 0%
KCHSC Obs (Observed percent weed control) [1, 11]: 17%
KCHSC Obs (Observed percent weed control) ([1]; Table 4, Fall application, propyzamide 450 g ai/ha): 0%
SINAR Obs (Observed percent weed control) [2, 8]: 38%
SINAR Obs (Observed percent weed control) ([2]; Table 3, Spring application, propyzamide 900 g ai/ha): 10%
SINAR Obs (Observed percent weed control) ([2]; Table 4, Fall application, propyzamide 900 g ai/ha): 38%
AVEFA Obs (Observed percent weed control) [3, 9]: 30%
AVEFA Obs (Observed percent weed control) [3, 11]: 30%

Cc1nn(-c2cc(NS(C)(=O)=O)c(Cl)cc2Cl)c(=O)n1C(F)F [Sulfentrazone, N-[2,4-dichloro-5-[4-(difluoromethyl)-4,5-dihydro-3-methyl-5-oxo-1H-1,2,4-triazol-1-yl]phenyl]methanesulfonamide]
HORJU Obs (Observed percent weed control) [4, 12]: 15%
HORJU Obs (Observed percent weed control) [4, 13]: 28%
HORJU Obs (Observed percent weed control) [4, 14]: 15%
KCHSC Obs (Observed percent weed control) [1, 12]: 30%
KCHSC Obs (Observed percent weed control) [1, 13]: 40%
KCHSC Obs (Observed percent weed control) [1, 14]: 20%
KCHSC Obs (Observed percent weed control) [1, 15]: 20%
KCHSC Obs (Observed percent weed control) [1, 16]: 30%
SINAR Obs (Observed percent weed control) [2, 12]: 38%
SINAR Obs (Observed percent weed control) [2, 15]: 53%
SINAR Obs (Observed percent weed control) [2, 16]: 25%
AVEFA Obs (Observed percent weed control) [3, 14]: 0%
AVEFA Obs (Observed percent weed control) ([3]; Table 2, Spring application, sulfentrazone 105 g ai/ha): 15%
AVEFA Obs (Observed percent weed control) ([3]; Table 3, Spring application, sulfentrazone 105 g ai/ha): 0%

— patent US20150057154A1, “HERBICIDAL COMPOSITIONS COMPRISING SULFENTRAZONE plus PROPYZAMIDE AND SULFENTRAZONE PLUS PROPYZAMIDE PLUS ETHALFLURALIN” (Dow AgroSciences LLC, priority 2013, published 2015)
